{"source": "ChEMBL document CHEMBL1667765", "about": "“Syntheses, antiproliferative activity and theoretical characterization of acitretin-type retinoids with changes in the lipophilic part” (2011)", "key": {"MCF7 [1]": {"tested_on": "MCF7", "assay": "Antiproliferative activity against human MCF7 cells expressing estrogen receptor assessed as cell growth inhibition 50 uM after 72 hrs by WST-1 assay relative to control", "format": "functional"}, "MCF7 [2]": {"tested_on": "MCF7", "assay": "Antiproliferative activity against human MCF7 cells expressing estrogen receptor assessed as cell growth inhibition 5 uM after 72 hrs by WST-1 assay relative to control", "format": "functional"}, "MCF7 [3]": {"tested_on": "MCF7", "assay": "Antiproliferative activity against human MCF7 cells expressing estrogen receptor after 72 hrs by WST-1 assay", "format": "functional, cell-based"}, "MCF7 [4]": {"tested_on": "MCF7", "assay": "Induction of apoptosis in human MCF7 cells expressing estrogen receptor assessed as increase of PARP cleavage at 10^-5 M after 9 hrs by Western blotting", "format": "functional, cell-based"}, "[5]": {"target": "RAC-alpha serine/threonine-protein kinase (Homo sapiens) (UniProt P31749)", "sequence (P31749 whole entry)": "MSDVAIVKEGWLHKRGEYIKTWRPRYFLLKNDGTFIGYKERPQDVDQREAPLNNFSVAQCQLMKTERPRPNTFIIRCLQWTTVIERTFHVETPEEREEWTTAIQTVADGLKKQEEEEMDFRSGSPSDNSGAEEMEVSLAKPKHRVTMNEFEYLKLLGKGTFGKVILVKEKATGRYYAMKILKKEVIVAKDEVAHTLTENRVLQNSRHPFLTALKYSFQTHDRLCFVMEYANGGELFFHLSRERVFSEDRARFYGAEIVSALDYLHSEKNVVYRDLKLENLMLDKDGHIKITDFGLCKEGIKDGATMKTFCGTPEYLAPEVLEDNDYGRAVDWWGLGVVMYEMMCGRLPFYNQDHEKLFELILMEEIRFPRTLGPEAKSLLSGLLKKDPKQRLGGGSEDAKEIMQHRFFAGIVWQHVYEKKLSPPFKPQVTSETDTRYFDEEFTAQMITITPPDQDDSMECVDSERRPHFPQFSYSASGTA", "assay": "Activation of Akt in human MCF7 cells expressing estrogen receptor at 10^-5 M after 4 hrs by Western blotting", "format": "functional, cell-based"}, "MCF7 [6]": {"tested_on": "MCF7", "assay": "Induction of apoptosis in human MCF7 cells expressing estrogen receptor assessed as increase of PARP cleavage at 10^-5 M after 4 hrs by Western blotting", "format": "functional, cell-based"}, "MCF7 [7]": {"tested_on": "MCF7", "assay": "Cell cycle arrest in human MCF7 cells expressing estrogen receptor at 10^-5 M after 9 to 48 hrs using propidium iodide staining by FACS analysis", "format": "functional, cell-based"}, "[8]": {"target": "RAC-alpha serine/threonine-protein kinase (Homo sapiens) (UniProt P31749)", "assay": "Activation of Akt in human MCF7 cells expressing estrogen receptor at 10^-5 M after 9 hrs by Western blotting", "format": "functional, cell-based"}, "MCF7 [9]": {"tested_on": "MCF7", "assay": "Antiproliferative activity against human MCF7 cells expressing estrogen receptor at 10 uM after 72 hrs by WST-1 assay", "format": "functional", "settings": "MCF7, 72 h"}, "MCF7 [10]": {"tested_on": "MCF7", "assay": "Antiproliferative activity against human MCF7 cells expressing estrogen receptor after 72 hrs by MTT assay", "format": "functional, cell-based"}}, "note": "Active and inactive are the calls of the source. The rule behind the calls is not given here."}
{"smiles": "CC(/C=C/C=C(\\C)c1ccc2ccc3cccc4ccc1c2c34)=C\\C(=O)O", "values": [{"measurement": "inhibition (INH)", "setting": "MCF7 [1]", "value": 8, "unit": "%"}]}
{"smiles": "CC(/C=C/c1cc(F)c(F)cc1F)=C\\C=C\\C(C)=C\\C(=O)O", "values": [{"measurement": "inhibition (INH)", "setting": "MCF7 [2]", "value": 2, "unit": "%"}, {"measurement": "inhibition (INH)", "setting": "MCF7 [1]", "value": 10, "unit": "%"}]}
{"smiles": "COc1cc(C)c(/C=C/C(C)=C/C=C/C(C)=C/C(=O)O)c(C)c1C", "values": [{"measurement": "inhibition", "setting": "MCF7 [3]", "value": "Dose-dependent effect"}]}
{"smiles": "COc1cc(OC)c(/C=C/C(C)=C/C=C/C(C)=C/C(=O)O)c(OC)c1", "values": [{"measurement": "Activity", "setting": "MCF7 [4]", "value": "inactive"}, {"measurement": "Activity", "setting": "[5]", "value": "inactive"}, {"measurement": "Activity", "setting": "MCF7 [6]", "value": "inactive"}, {"measurement": "inhibition", "setting": "MCF7 [3]", "value": "Active"}, {"measurement": "Activity", "setting": "MCF7 [7]", "value": "inactive"}, {"measurement": "Activity", "setting": "[8]", "value": "inactive"}, {"measurement": "inhibition (INH)", "setting": "MCF7 [1]", "value": -53, "unit": "%"}, {"measurement": "inhibition at 10 µM", "setting": "MCF7 [9]", "value": 52, "unit": "%"}, {"measurement": "inhibition", "setting": "MCF7 [10]", "value": "Active"}]}
{"smiles": "CN[C@@H]1C[C@H]2O[C@@](C)([C@@H]1OC)n1c3ccccc3c3c4c(c5c6ccccc6n2c5c31)C(=O)NC4", "values": [{"measurement": "Activity", "setting": "MCF7 [4]", "value": "Active"}, {"measurement": "Activity", "setting": "MCF7 [6]", "value": "Active"}]}
{"smiles": "COc1ccc(/C=C/C(C)=C/C=C/C(C)=C/C(=O)O)cc1OC", "values": [{"measurement": "inhibition (INH)", "setting": "MCF7 [1]", "value": -30, "unit": "%"}]}
{"smiles": "COc1ccc2cc(/C(C)=C/C=C/C(C)=C/C(=O)O)ccc2c1", "values": [{"measurement": "inhibition (INH)", "setting": "MCF7 [1]", "value": -32, "unit": "%"}]}
{"smiles": "CC(/C=C/C=C(\\C)c1ccc2cc3ccccc3cc2c1)=C\\C(=O)O", "values": [{"measurement": "inhibition (INH)", "setting": "MCF7 [1]", "value": 15, "unit": "%"}]}
{"smiles": "CC(/C=C/c1ccc(C(F)(F)F)cc1C(F)(F)F)=C\\C=C\\C(C)=C\\C(=O)O", "values": [{"measurement": "inhibition (INH)", "setting": "MCF7 [2]", "value": 13.9, "unit": "%"}, {"measurement": "inhibition (INH)", "setting": "MCF7 [1]", "value": 6, "unit": "%"}]}
{"smiles": "CC(/C=C/c1ccc2ccccc2c1)=C\\C=C\\C(C)=C\\C(=O)O", "values": [{"measurement": "inhibition (INH)", "setting": "MCF7 [1]", "value": -25, "unit": "%"}]}
{"smiles": "CC(/C=C/c1ccc2ccc3cccc4ccc1c2c34)=C\\C=C\\C(C)=C\\C(=O)O", "values": [{"measurement": "inhibition (INH)", "setting": "MCF7 [2]", "value": 5.2, "unit": "%"}, {"measurement": "inhibition (INH)", "setting": "MCF7 [1]", "value": 4, "unit": "%"}]}
{"smiles": "CC1=C(/C=C/C(C)=C/C=C/C(C)=C/C(=O)O)C(C)(C)CCC1", "note": "[TRETINOIN]", "values": [{"measurement": "inhibition (INH)", "setting": "MCF7 [1]", "value": 3.1, "unit": "%"}]}
{"smiles": "CC(/C=C/c1ccc(N(C)C)cc1)=C\\C=C\\C(C)=C\\C(=O)O", "values": [{"measurement": "inhibition (INH)", "setting": "MCF7 [1]", "value": 5, "unit": "%"}]}
